Activity calls are given as the source filed them.
Key:
Vero = experiment: cells; type: functional; details: Chlorocebus sabaeus
[1] = target: T1, Sentrin-specific protease 6 (Homo sapiens, UniProt Q9GZR1); type: functional;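 also: Luminescence-based dose-response confirmatory assay of SENP6 inhibition, following up an ultra-high-throughput screen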
T1 sequence (Q9GZR1 whole entry): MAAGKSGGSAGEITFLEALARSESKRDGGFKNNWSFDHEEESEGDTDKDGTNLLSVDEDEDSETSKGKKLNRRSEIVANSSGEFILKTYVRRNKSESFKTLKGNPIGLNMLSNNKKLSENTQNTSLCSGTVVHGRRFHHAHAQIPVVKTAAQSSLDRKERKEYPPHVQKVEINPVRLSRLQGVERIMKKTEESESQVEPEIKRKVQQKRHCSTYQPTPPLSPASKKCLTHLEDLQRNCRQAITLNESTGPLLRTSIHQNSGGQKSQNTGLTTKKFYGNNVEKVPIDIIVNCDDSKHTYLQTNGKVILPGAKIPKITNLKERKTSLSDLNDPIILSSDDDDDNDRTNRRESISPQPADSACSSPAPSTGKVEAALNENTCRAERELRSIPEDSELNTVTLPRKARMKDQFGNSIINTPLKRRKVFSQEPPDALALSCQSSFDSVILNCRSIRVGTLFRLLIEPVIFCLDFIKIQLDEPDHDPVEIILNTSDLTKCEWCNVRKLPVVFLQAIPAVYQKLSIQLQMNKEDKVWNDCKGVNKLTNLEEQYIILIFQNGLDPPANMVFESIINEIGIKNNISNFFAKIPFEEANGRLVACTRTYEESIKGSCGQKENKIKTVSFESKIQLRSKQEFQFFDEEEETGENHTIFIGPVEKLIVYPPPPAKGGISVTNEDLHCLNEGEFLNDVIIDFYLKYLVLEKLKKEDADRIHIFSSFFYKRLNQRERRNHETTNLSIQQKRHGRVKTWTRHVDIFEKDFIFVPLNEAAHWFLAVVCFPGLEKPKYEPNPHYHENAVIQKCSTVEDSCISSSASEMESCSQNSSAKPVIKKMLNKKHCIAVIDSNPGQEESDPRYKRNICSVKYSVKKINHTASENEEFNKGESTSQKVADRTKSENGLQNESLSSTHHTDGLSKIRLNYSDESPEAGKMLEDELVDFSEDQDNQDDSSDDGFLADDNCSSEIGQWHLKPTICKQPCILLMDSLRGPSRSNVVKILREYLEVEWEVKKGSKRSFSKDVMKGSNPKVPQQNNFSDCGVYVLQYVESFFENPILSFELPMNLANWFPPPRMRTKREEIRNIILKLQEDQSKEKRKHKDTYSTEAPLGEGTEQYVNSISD

[2] = target: T2, Sentrin-specific protease 7 (Homo sapiens, UniProt Q9BQF6); type: functional;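 also: Luminescence-based dose-response confirmation of ultra-high-throughput screening hits, measuring inhibition of SENP7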
T2 sequence (Q9BQF6 whole entry): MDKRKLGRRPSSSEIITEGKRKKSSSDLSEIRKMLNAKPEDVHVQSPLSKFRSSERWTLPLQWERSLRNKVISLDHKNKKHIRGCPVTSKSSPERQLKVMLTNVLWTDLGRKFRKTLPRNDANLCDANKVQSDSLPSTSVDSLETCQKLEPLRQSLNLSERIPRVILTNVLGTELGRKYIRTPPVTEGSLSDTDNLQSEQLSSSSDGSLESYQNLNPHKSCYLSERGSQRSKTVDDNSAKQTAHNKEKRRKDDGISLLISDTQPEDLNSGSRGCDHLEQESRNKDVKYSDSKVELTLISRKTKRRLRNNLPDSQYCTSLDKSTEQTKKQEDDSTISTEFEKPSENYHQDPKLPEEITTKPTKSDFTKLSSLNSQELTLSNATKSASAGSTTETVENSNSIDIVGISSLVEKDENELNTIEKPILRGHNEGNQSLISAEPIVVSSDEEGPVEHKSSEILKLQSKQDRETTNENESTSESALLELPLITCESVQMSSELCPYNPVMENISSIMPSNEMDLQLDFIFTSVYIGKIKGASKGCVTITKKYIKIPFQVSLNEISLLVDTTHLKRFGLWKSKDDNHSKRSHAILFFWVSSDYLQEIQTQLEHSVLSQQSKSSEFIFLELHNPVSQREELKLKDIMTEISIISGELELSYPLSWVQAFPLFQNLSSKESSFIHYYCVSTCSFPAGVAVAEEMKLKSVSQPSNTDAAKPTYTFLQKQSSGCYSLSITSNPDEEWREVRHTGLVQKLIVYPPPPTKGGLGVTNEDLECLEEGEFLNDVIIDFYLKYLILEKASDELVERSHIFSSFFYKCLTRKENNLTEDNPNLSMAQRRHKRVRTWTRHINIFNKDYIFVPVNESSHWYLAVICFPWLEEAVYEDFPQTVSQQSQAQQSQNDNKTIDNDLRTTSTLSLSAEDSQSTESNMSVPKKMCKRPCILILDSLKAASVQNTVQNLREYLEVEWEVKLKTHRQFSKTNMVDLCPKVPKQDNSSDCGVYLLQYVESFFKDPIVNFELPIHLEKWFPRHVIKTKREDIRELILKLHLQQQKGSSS

[3] = target: T3, Sentrin-specific protease 8 (Homo sapiens, UniProt Q96LD8); type: functional;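 also: luminescence read-out of SENP8 inhibition, dose-response confirmation following an ultra-high-throughput screen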
T3 sequence (Q96LD8 whole entry): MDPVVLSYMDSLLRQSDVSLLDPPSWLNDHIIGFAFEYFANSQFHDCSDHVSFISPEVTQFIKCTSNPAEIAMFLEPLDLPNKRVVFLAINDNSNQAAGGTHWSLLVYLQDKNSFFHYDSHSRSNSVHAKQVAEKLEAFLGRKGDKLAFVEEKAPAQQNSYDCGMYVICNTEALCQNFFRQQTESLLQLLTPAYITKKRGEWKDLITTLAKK

Caspase-3 = target: T4, Caspase-3 (Homo sapiens, UniProt P42574); type: functional;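 also: Dose-response selectivity test against caspase-3 for candidate inhibitors of sentrin-specific proteases (SENPs)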
T4 sequence (P42574 whole entry): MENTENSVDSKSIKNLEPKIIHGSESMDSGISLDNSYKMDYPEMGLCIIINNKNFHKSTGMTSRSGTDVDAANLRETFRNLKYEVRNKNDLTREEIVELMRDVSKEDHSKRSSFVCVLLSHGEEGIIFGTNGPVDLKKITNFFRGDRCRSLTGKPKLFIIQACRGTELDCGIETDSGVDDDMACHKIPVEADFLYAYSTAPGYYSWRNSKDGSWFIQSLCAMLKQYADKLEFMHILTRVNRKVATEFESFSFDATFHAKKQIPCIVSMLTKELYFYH

[4] = reduction of Shn3 3'UTR-driven luciferase in osteoblasts – cell-based, Clone20 osteoblasts, firefly luciferase, cherry-picked, dose response (AID 624132); type: functional;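 also: firefly luciferase luminescence from reporter carrying the Shn3 3'UTR in osteoblasts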
[5] = non-specific 3'UTR reporter inhibition in Clone20-Shn3RL – cell-based, Renilla luciferase, cherry-picked, counter-screen for Shn3 inhibitor project, dose response (AID 624133); type: functional
[6] = loss of viability in HepG2 cells – cell-based, CellTiter-Glo, cherry-picked, cytotoxicity control for Shn3 inhibitor project, dose response (AID 624134); type: functional
Cytochrome P450 2C9 = Cytochrome P450 2C9 (Homo sapiens, UniProt P11712)
[7] = viability of HCT116 lacking mutant beta-catenin – cell-based, human colon tumor, dose response (AID 1045); type: functional;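 also: HCT116 colon tumor cells with beta catenin knocked out; cells exposed to compound for 60 hours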
[8] = viability of PTEN-deleted HCT116 cells – cell-based, HCT116 PTEN knockout, dose response (AID 1047); type: functional;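 also: HCT116 colon tumor cells with PTEN knocked out; cells exposed to compound for 60 hours before readout; potency for loss of cell viability measured by luminescence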
Cytochrome P450 2C19 = Cytochrome P450 2C19 (Homo sapiens, UniProt P33261); experiment: Cytochrome panel assay with activity outcomes. Panel member name: p450-cyp2c19 Compounds with AC50 equal or less than 10 uM are considered active; type: functional; details: read-out: AC50
[9] = luciferase reporter signal suppression in cells – H4 neuroglioma cells, luminescence, dose response (AID 1990); type: functional, cell-based
Streptococcus = experiment: GAS UMAA2166 growth inhibition – luminescence, BacTiterGlo, counter-screen for streptokinase expression inhibitor project, dose response (AID 1915); type: functional, organism-based;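 also: potency for reduction of bacterial viability or growth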
[10] = alpha-synuclein stem-loop luciferase translation blockers – H4 neuroglioma cells, luminescence, confirmation (AID 1988); type: functional, cell-based
[11] = tested on: Streptococcus sp. 'group A'; experiment: Streptococcus pyogenes SK(-)GAS viability under kanamycin – luminescence, BacTiterGlo, confirmation, counter-screen for streptokinase expression inhibitor project, dose response (AID 1900); type: functional, organism-based
Streptokinase A = target: T5, Streptokinase A (Streptococcus pyogenes serotype M1, UniProt P10520); experiment: viability-normalized secreted streptokinase activity reduction – plasminogen activation absorbance, OD405, dose response (AID 1914); type: functional, Streptococcus pyogenes M1 GAS;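 also: secreted streptokinase activity via plasminogen activation per viability signal from cell pellet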
T5 sequence (P10520 whole entry): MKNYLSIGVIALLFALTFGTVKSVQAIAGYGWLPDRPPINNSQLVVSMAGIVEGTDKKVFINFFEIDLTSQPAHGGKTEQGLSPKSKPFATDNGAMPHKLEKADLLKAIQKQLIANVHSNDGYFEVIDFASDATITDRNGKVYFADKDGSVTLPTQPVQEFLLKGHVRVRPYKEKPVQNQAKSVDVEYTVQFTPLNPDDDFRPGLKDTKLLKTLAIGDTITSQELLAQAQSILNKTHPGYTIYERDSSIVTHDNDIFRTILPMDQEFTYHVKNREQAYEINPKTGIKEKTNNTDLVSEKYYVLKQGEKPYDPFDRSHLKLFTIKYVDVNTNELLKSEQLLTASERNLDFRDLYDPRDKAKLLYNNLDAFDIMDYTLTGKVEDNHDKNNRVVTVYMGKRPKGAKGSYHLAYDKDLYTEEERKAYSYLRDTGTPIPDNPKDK

[12] = Luminescence Cell-Based Dose Response HTS to Identify Inhibitors of 5'UTR Stem-Loop Driven Prion Protein mRNA Translation in H4 Neuroglioblastoma Cells. [Related pubchem assays: 1827 (Project Summary), 1813 (Primary HTS)]; type: functional
[13] = microbe, parasite or virus in culture; type: functional; details: Mycobacterium tuberculosis
cells = type: functional
HEK293 [14] = experiment: NOD2 signaling inhibitors in MDP-stimulated cells, cell-based, uHTS, luminescence (AID 2001); type: functional; details: Homo sapiens
HEK293 [15] = experiment: cells; type: functional, cell-based; details: Homo sapiens
HEK293 [16] = experiment: inhibition of NOD1-driven NF-kB reporter – cell-based, luminescence, uHTS, primary screen (AID 1578); type: functional; details: Homo sapiens
HEK293 [17] = experiment: cells; type: functional, cell-based; details: Homo sapiens; remark: listed apart in the source

Chain of Cytochrome P450 2C9 (P11712 whole entry): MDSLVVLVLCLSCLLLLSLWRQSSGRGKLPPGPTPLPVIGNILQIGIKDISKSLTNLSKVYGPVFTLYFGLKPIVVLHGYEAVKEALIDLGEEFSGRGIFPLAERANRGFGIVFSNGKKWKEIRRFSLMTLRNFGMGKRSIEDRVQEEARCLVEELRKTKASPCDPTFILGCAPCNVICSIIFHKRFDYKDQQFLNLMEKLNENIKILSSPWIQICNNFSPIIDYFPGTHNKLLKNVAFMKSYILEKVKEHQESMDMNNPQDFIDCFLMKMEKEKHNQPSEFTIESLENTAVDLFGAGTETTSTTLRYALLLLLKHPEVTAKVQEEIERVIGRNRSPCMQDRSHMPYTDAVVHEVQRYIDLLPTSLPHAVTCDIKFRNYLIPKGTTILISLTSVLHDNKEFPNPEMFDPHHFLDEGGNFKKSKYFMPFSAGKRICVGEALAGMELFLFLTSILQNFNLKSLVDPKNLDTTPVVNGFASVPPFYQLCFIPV
Chain of Cytochrome P450 2C19 (P33261 whole entry): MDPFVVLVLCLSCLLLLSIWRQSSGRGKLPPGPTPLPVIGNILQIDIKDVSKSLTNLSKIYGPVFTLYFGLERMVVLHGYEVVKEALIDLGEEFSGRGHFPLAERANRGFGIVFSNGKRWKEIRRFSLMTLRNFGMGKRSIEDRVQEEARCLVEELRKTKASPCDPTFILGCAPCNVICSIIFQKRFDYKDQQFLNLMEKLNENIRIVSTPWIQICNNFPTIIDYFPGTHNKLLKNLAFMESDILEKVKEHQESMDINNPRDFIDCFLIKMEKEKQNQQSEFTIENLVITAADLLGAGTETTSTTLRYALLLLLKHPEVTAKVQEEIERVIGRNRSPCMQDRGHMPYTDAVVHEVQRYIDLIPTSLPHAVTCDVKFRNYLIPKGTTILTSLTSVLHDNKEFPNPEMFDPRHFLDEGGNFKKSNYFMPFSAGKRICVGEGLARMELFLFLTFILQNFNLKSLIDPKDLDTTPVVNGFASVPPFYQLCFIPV

O=C(C=Cc1ccccn1)c1ccccc1
CC50 (Vero): 9.58 µM (active)

O=c1c2ccccc2nnn1COc1cccc(Cl)c1
IC50 [1]: 34 µM (active)
IC50 [2]: 6.41 µM (active)
IC50 [3]: 6.62 µM (active)
IC50 (Caspase-3): 16.1 µM (active)

Cc1ccc(NC(=O)CSc2ccc3c(c2)OCCO3)c(O)c1
AC50 [4]: 0.343 µM (active)
AC50 [5]: 0.525 µM (active)
AC50 [6]: 7.27 µM (active)

Cc1cccc(CNc2cc(-c3cccc(NS(C)(=O)=O)c3)ncn2)c1
AC50 (Cytochrome P450 2C9): inconclusive

Cc1cccc(Nc2nnc(SCC(=O)NC(=O)Nc3ccc4c(c3)OCCO4)s2)c1
EC50 [7]: 9.93 µM (active)
EC50 [8]: 13 µM (active)
CC50 (Vero): > 25 µM (active)

CC(=O)Nc1ccc(C#Cc2ccc(NC(C)=O)cc2)cc1
AC50 (Cytochrome P450 2C19): 0.00631 µM (inconclusive)
EC50 [9]: 16.5 µM (active)
EC50 (Streptococcus): 9.38 µM (active)
EC50 [10]: 8.38 µM (active)
EC50 [11]: 0.953 µM (active)
AC50 (Cytochrome P450 2C9): inconclusive
EC50 (Streptokinase A): > 150 µM (not active)
EC50 [12]: 10.5 µM (active)

COc1cccc(/C=C2\CCC(C3CCCC3)C2=O)c1 (stereo not drawn)
IC50 [1]: 25.5 µM (active)
IC50 [2]: 11.8 µM (active)
IC50 [3]: 33.4 µM (active)
IC50 (Caspase-3): 27.3 µM (active)

CCc1ccccc1NC(=O)c1ccc(-n2c(C)ccc2C)cc1
AC50 (Cytochrome P450 2C9): inconclusive

CCc1c(C)nc2ncnn2c1NCCc1ccc(Cl)cc1
AC50 [4]: 2.17 µM (active)
AC50 [5]: 3.82 µM (active)
AC50 [6]: 60.2 µM (active)

CN(Cc1ccco1)c1cc(-c2cccc(C#N)c2)ncn1
AC50 (Cytochrome P450 2C9): inconclusive

Cc1ccc(F)cc1CNC(=O)c1cc(COc2ccc3ncccc3c2)on1
AC50 [4]: 4.88 µM (active)
AC50 [5]: 4.3 µM (active)
AC50 [6]: 6.33 µM (active)
CC50 [13]: > 40 µM (active)

Cc1ccc(S(C)=NS(=O)(=O)c2ccc(C)cc2)cc1 (stereo not drawn)
AC50 (Cytochrome P450 2C19): 7.08 µM (inconclusive)
AC50 (Cytochrome P450 2C9): inconclusive

COc1ccc(OC(=O)c2cc3ccccc3o2)cc1
IC50 [1]: > 100 µM (inactive)
IC50 [2]: 5.34 µM (active)
IC50 [3]: > 100 µM (inactive)
IC50 (Caspase-3): 33 µM (active)
IC50 (cells): 16.6 µM (active)

O=C(CC1(O)C(=O)N(Cc2cccc3ccccc23)c2ccccc21)c1cccnc1 (stereo not drawn)
CC50 (Vero): > 25 µM (active)

Cc1cccc(C(=O)Nc2cccc(C(=O)N/N=C/c3ccc4c(c3)OCO4)c2)c1
IC50 [1]: 15.2 µM (active)
IC50 [2]: 14.2 µM (active)
IC50 [3]: 35 µM (active)
IC50 (Caspase-3): 13 µM (active)

Cn1c(O)c(N=NC(S)=Nc2ccccc2F)c2cc(S(=O)(=O)N3CCOCC3)ccc21
IC50 (HEK293 [14]): 9.77 µM (active)
IC50 (HEK293 [15]): 19.1 µM (active)
EC50 (HEK293 [16]): > 20 µM (inactive)
EC50 (Streptococcus): 44.2 µM (active)
IC50 (HEK293 [17]): > 20 µM (inactive)
EC50 [11]: 7.47 µM (active)
EC50 (Streptokinase A): > 150 µM (not active)

O=C(NC1C2CC3CC(C2)CC1C3)c1ccc(N2CCNCC2)c([N+](=O)[O-])c1 (stereo not drawn)
CC50 (Vero): > 25 µM (active)
